Results reported in PMC11283233, “A comparative analysis of NADPH supply strategies in Saccharomyces cerevisiae: Production of D-xylitol from D-xylose as a case study” (Metabolic Engineering Communications, 2024).

How the values were obtained:
[1] = target: T1, Zwf1 (glucose-6-phosphate dehydrogenase) (Saccharomyces cerevisiae, UniProt P11412); assay: NADP+ reduction at […] nm, crude extract of overexpressing strain PRY63; format: biochemical; conditions: 2.5 mM glucose-6-phosphate, 0.67 mM NADP+, 50 mM imidazole pH 7.0, 100 mM KCl, 10 mM MgCl2, 0.1 mM EDTA
T1 construct: full-length, untagged; overexpressed from truncated HXT7 promoter at the genomic ZWF1 locus; crude yeast extract
T1 sequence (P11412 2-505): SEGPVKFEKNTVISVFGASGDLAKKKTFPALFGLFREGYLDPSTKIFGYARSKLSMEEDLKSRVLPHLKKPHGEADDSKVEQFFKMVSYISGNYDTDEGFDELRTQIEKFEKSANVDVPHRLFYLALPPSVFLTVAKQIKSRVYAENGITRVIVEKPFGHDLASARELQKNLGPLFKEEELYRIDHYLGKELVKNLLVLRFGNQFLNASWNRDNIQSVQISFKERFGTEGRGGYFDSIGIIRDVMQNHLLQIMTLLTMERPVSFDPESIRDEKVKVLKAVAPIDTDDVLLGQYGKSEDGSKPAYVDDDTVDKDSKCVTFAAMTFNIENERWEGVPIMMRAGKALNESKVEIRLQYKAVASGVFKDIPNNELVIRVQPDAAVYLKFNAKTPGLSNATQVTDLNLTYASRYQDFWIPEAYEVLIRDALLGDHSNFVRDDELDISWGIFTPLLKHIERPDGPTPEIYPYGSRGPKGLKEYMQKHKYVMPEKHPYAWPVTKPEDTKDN

[2] = target: T2, Zwf1 (glucose-6-phosphate dehydrogenase) (Saccharomyces cerevisiae, UniProt P11412, DEL59-59); assay: NADP+ reduction at […] nm, crude extract of overexpressing strain PRY48 (ZWF1*); format: biochemical; conditions: 2.5 mM glucose-6-phosphate, 0.67 mM NADP+, 50 mM imidazole pH 7.0, 100 mM KCl, 10 mM MgCl2, 0.1 mM EDTA
T2 construct: full-length, untagged; overexpressed from truncated HXT7 promoter at the genomic ZWF1 locus; crude yeast extract
T2 sequence (P11412 with tags, fused parts or gaps DEL59-59): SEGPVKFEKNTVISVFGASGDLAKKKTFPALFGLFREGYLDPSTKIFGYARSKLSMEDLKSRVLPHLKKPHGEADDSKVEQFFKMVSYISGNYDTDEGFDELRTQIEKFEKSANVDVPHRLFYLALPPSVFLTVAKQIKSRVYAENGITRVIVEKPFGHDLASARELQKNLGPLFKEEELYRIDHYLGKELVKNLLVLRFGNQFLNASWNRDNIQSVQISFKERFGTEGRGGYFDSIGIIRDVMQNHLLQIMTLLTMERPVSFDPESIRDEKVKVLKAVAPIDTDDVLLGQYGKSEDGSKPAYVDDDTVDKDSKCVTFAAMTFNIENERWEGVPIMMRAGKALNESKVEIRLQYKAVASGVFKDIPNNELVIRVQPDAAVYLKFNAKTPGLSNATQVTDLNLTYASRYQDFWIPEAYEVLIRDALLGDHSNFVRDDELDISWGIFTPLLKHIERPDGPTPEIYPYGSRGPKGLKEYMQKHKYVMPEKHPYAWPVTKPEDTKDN

[3] = target: T3, Xyl1 (coXYL1) (Scheffersomyces stipitis, UniProt P31867); assay: xylitol formation in cells, HPLC, versus empty vector; format: cell-based; conditions: whole-cell fermentation, SC medium, 30 g/L glucose, 20 g/L xylose, 30 °C; NADPH-dependent
T3 construct: full-length, codon-optimized gene on p425H7, expressed in S. cerevisiae PRY39 (gre3 deleted); intact cells
T3 sequence (P31867 1-318): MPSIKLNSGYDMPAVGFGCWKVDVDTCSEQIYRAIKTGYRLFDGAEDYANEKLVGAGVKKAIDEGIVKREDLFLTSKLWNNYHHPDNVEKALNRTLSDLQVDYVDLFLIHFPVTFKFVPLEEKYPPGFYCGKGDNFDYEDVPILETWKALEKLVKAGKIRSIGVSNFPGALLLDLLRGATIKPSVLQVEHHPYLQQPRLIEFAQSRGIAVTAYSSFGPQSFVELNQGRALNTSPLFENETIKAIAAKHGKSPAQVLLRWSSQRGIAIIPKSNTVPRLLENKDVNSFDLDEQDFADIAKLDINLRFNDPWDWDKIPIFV

[4] = target: T4, Gre3 (coGRE3, ScGRE3) (Saccharomyces cerevisiae, UniProt P38715); assay: as above; format: cell-based; conditions: whole-cell fermentation, SC medium, 30 g/L glucose, 20 g/L xylose, 30 °C; NADPH-dependent
T4 construct: full-length, codon-optimized or native gene on p425H7, expressed in S. cerevisiae PRY39 (gre3 deleted); intact cells
T4 sequence (P38715 2-327): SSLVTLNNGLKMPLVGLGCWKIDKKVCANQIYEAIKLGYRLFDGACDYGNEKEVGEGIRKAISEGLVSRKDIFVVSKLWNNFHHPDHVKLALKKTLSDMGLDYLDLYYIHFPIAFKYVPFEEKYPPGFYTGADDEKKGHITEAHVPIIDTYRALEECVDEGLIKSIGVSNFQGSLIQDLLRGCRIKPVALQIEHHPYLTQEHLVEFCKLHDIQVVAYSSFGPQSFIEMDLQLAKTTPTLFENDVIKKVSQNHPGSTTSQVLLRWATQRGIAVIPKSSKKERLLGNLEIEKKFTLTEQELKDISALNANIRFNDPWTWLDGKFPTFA

Compound | NADP+ reduction at 340 nm, crude extract of overexpressing strain PRY63 [1] | NADP+ reduction at 340 nm, crude extract of overexpressing strain PRY48 (ZWF1*) [2] | xylitol formation in cells, HPLC, versus empty vector [3] | xylitol formation in cells, HPLC, versus empty vector [4]
NC(=O)c1ccc[n+]([C@@H]2O[C@H](COP(=O)(O)OP(=O)(O)OC[C@H]3O[C@@H](n4cnc5c(N)ncnc54)[C@H](OP(=O)(O)O)[C@@H]3O)[C@@H](O)[C@H]2O)c1 [NADP^+] | The reduction of NADP^+ was recorded by continuously measuring the change of the absorbance | the deletion of Glu59 apparently led to a higher Zwf1 activity | – | –
O=P(O)(O)OC[C@H]1OC(O)[C@H](O)[C@@H](O)[C@@H]1O (some centres unmarked) [glucose-6-phosphate] | A G6PDH assay was performed in crude extracts from the engineered strains | – | – | –
OC1OC[C@@H](O)[C@H](O)[C@H]1O (some centres unmarked) [xylose] | – | – | The expression of all XR constructs led to considerably high xylitol titers | The expression of all XR constructs led to considerably high xylitol titers
